Columns and labels:
Bacillus cereus = test: Inhibition of Bacillus cereus phosphatidylcholine specific phospholipase C (PC-PLC BC) assessed as enzyme activity by measuring formation of resorufin fluorophore 10 uM by Amplex-Red based fluorescence assay relative to control; design: scale not given: the % may be the effect or the level left
MDA-MB-231 = test: Antiproliferative activity against human MDA-MB-231 cells assessed as cell proliferation at 10 uM measured after 3 days incubation followed by incubated 5 hrs with [3H]-thymidine by 3H-thymidine incorporation assay relative to control; format: functional; conditions: MDA-MB-231, 72 h, time 3 day, read-out: Activity
HCT-116 = test: Antiproliferative activity against human HCT-116 cells assessed as cell proliferation at 10 uM measured after 3 days incubation followed by incubated 5 hrs with [3H]-thymidine by 3H-thymidine incorporation assay relative to control; format: functional; conditions: HCT-116, 72 h, time 3 day, read-out: Activity

Row | Activity (Bacillus cereus) | SMILES | growth at 10 µM (MDA-MB-231) | growth at 10 µM (HCT-116)
1 | 49.1% | O=C(NO)c1ccc(NCc2cccc(F)c2)cc1N1CCOCC1 | 76.2% | 84.3%
2 | 71.4% | O=C(NO)c1cc(NCc2ccc(Br)cc2)ccc1C1CCOCC1 | 61.6% | 60.1%
3 | 104% | COC(=O)c1ccc(NCc2ccccc2OC)cc1N1CCOCC1 | 73.6% | 55.5%
4 | 106% | COc1cccc(CNc2ccc(C(=O)O)c(N3CCOCC3)c2)c1 | 101% | 103%
5 | 94% | O=C(NO)c1cc(NCc2ccccc2F)ccc1C1CCOCC1 | 88% | 98.6%
6 | 96.6% | O=C(O)c1ccc(NCc2ccccc2)cc1N1CCOCC1 | 96.8% | 92.4%
7 | 75.4% | COC(=O)c1cc(NCc2ccc(OC)cc2)ccc1C1CCOCC1 | 71.2% | 54.5%
8 | 46.9% | COc1ccccc1CNc1ccc(C(=O)NO)c(N2CCOCC2)c1 | 70.7% | 83.2%
9 | 54.1% | O=C(NO)c1ccc(NCc2ccccc2Cl)cc1N1CCOCC1 | 41.8% | 68.4%
10 | 109% | O=C(O)c1cc(NCc2cccc(Cl)c2)ccc1C1CCOCC1 | 114% | 103%
11 | 88.2% | O=C(NO)c1cc(NCc2cccc(F)c2)ccc1C1CCOCC1 | 84.4% | 94.4%
12 | 82.2% | O=C(O)c1ccc(NCc2ccccc2F)cc1N1CCOCC1 | 96.4% | 95.2%
13 | 51.4% | COc1cccc(CNc2ccc(C(=O)NO)c(N3CCOCC3)c2)c1 | 65.7% | 77.4%
14 | 102% | O=C(O)c1cc(NCc2ccc(F)cc2)ccc1C1CCOCC1 | 107% | 104%
15 | 95.2% | O=C(O)c1ccc(NCc2ccccc2Br)cc1N1CCOCC1 | 90% | 94.4%
16 | 52% | COC(=O)c1cc(NCc2ccc(F)cc2)ccc1C1CCOCC1 | 36% | 25.3%
17 | 75.2% | O=C(NO)c1cc(NCc2cccc(Br)c2)ccc1C1CCOCC1 | 77.6% | 78.8%
18 | 44.5% | COC(=O)c1cc(NCc2cccc(F)c2)ccc1C1CCOCC1 | 41.3% | 29.2%
19 | 105% | O=C(O)c1cc(NCc2ccc(Br)cc2)ccc1C1CCOCC1 | 102% | 104%
20 | 30.5% | O=C(NO)c1cc(NCc2cccc(Cl)c2)ccc1N1CCOCC1 | – | –
21 | 80.3% | COC(=O)c1ccc(NCc2ccc(F)cc2)cc1N1CCOCC1 | 81.9% | 65%
22 | 109% | COC(=O)c1ccc(NCc2cccc(OC)c2)cc1N1CCOCC1 | 80.6% | 48.5%
23 | 45.6% | O=C(NO)c1ccc(NCc2ccc(Br)cc2)cc1N1CCOCC1 | 21.8% | 18.1%
24 | 54% | O=C(O)c1cc(NCc2ccccc2)ccc1C1CCOCC1 | 107% | 99.8%
25 | 45.3% | O=C(NO)c1ccc(NCc2cccc(Br)c2)cc1N1CCOCC1 | 25.3% | 32.3%
26 | – | O=C(NO)c1cc(NCc2ccccc2Br)ccc1N1CCOCC1 | 7.4% | –
27 | 116% | O=C(O)c1cc(NCc2ccccc2Br)ccc1C1CCOCC1 | 108% | 99.5%
28 | 104% | COC(=O)c1ccc(NCc2ccc(OC)cc2)cc1N1CCOCC1 | 87.5% | 70.4%
29 | 10.7% | O=C(O)c1cc(NCc2cccc(Cl)c2)ccc1N1CCOCC1 | – | –
30 | – | COC(=O)c1cc(N(C)Cc2ccccc2Cl)ccc1N1CCOCC1 | 83.8% | 54.5%

Source: ChEMBL document CHEMBL6182838, “Structure-activity relationship expansion and microsomal stability assessment of the 2-morpholinobenzoic acid scaffold as antiproliferative phosphatidylcholine-specific phospholipase C inhibitors” (RSC Med Chem, 2025)
